Data from patent US12171744B2, “Pharmaceutical combinations for the treatment of cancer” (Presage Biosciences, Inc., priority 2016, dated 2024).
“Also recorded” adds a separate entry of the source.

How the values were obtained:
[1] = system: NUDHL/Dox1000 cells; test: CIVO microinjection, CC3 expression; set-up: species or system mice; conditions: mouse, in vivo
Procedure: (§1) Cell lines shown in Table 1, adherent or suspension, were treated in 6-well dishes or T10 flasks respectively, seeded at one million per ml density prior to treatment in total volumes of 3-10 ml. All agents used for in vitro cell treatments were formulated in water/DMSO to achieve required concentrations (as stated in respective figure labels/legends) with DMSO concentrations not exceeding 0.01%. Drug sources are indicated in table under ‘CIVO microinjection studies’. Cells were harvested at experimental time points: 2, 6, or 24 hours post treatment as indicated in respective figures, first by washing cells twice in ice-cold PBS in 15 ml falcon tubes, centrifugation at 1000 rpm for 5 mins followed by lysis of the respective cell pellets as described in section below. Note: Drug resistant NUDHL1 Dox 1000 nM and Toledo Dox 1000 nM cell lines were generated at Presage by culturing parental lines in media with stepwise increments in Doxorubicin concentration over several passages. These cells were used to generate xenografts when resistance to 1 uM Dox was achieved.
Mice were enrolled into CIVO drug studies when the tumor volume reached approximately 1000 mm^3. […]

[2] = system: MV-4-11; test: Western blot of treated AML cells; assay type: cell-based
Procedure: as §1
(§2) Protein lysates were prepared by adding ice-cold 1×RIPA Buffer (from 10×, Millipore) with 1×-3× Halt protease and phosphatase inhibitor cocktail (100×, Pierce) to cell pellets, followed by pulse sonication (˜3-5 secs) three times. Lysates were cleared by centrifugation at 14K rpm for 15-20 mins and the supernatant (lysate) was collected for further analysis. To prepare lysates from cryopreserved xenograft tumor tissue, tissue was first homogenized using a hand-held tissue homogenizer (Cole Palmer) in above lysis buffer followed by pulse sonication and centrifugation as described above. Above steps were carried out under ice cold conditions. Protein samples were quantified using Bradford assay (Biorad) at 1:10 or higher dilutions using appropriate blank controls with 1×RIPA. 20-25 micrograms of protein from each sample were subject to SDS-PAGE using BOLT 4-12% Bis-Tris gels (Thermofisher) and transferred to either 0.45 or 0.2 micron pore size membranes (as applicable based on protein molecular size), and either nitrocellulose (NC) or pvdf (Thermofisher) using manufacturer's protocol, blocked for one hour in 5% milk at room temperature, probed with primary antibodies (Table 2) at 4 deg C. overnight and corresponding HRP-conjugated secondary antibodies (Jackson Immunoresearch, 1:10,000-1:20,000 dilutions) for 1 hour at room temperature. Three PBS/0.01% Tween-20 washes (5-10 mins each) were carried out after each antibody incubation. ECL chemiluminescent substrate (Pierce or GE) and autoradiographic film (Thermofisher) was used for detection of protein signals.
(§3) At the given time points, cells were lysed and subjected to western blot analysis with antibodies that specifically recognize phosphorylated RNA pol II (pSer2), MCL-1, cleaved PARP, and Beta-actin. […] Cleaved PARP (cPARP) may be used as a biomarker of apoptosis.
(§4) At the given time points, cells were lysed and subjected to western blot analysis with antibodies that specifically recognize phosphorylated RNA pol II (pSer2), MCL-1, cleaved PARP, and Beta-actin. […] Venetoclax is observed to induce MCL-1 upregulation in all three cell lines.

[3] = system: SKM-1; test: Western blot of treated AML cells; assay type: cell-based
Procedure: as §1, §2, §3, §4

[4] = system: OCI-AML-3; test: Western blot of treated AML cells; assay type: cell-based
Procedure: as §1, §2, §3, §4

[5] = system: SUDHL4 model of DLBCL; test: Xenograft tumor growth and Western blot of tumors; assay type: in vivo, NOD SCID mice
Procedure: Protein lysates were prepared by adding ice-cold 1×RIPA Buffer (from 10×, Millipore) with 1×-3× Halt protease and phosphatase inhibitor cocktail (100×, Pierce) to cell pellets, followed by pulse sonication (˜3-5 secs) three times. Lysates were cleared by centrifugation at 14K rpm for 15-20 mins and the supernatant (lysate) was collected for further analysis. To prepare lysates from cryopreserved xenograft tumor tissue, tissue was first homogenized using a hand-held tissue homogenizer (Cole Palmer) in above lysis buffer followed by pulse sonication and centrifugation as described above. Above steps were carried out under ice cold conditions. Protein samples were quantified using Bradford assay (Biorad) at 1:10 or higher dilutions using appropriate blank controls with 1×RIPA. […]
Immune deficient NOD SCID mice were implanted with the SUDHL4 model of DLBCL. […] Drug effects were assessed via tumor volume measurements twice weekly by a technician blinded to the treatment of each subject in the study. […]

[6] = system: HCC1187 triple negative breast cancer (TNBC) xenograft model; test: CIVO microinjection, MCL-1 and CC3 staining; assay type: in vivo, mice; conditions: marker of apoptosis
Procedure: Mice were enrolled into CIVO drug studies when the tumor volume reached approximately 1000 mm^3. Microinjection studies were performed using the CIVO device as previously described (Klinghoffer et al, Science Translational Medicine 2015) The device was configured with 6 injection needles set for a 6 mm injection length and a total volume delivery of 3 μl. A fluorescent tracking marker (FTM) was added to each drug reservoir in vehicle for delivery along with each drug or drug combination. All micro-doses were equivalent to or lower than what would be allowed under FDA guidelines for Exploratory IND (Investigational New Drug) studies and by solubility of drug into vehicle. Total amounts of agents injected are tabulated below in Table 4.
A drug screen was performed to test multiple drugs simultaneously.
FIG. 11 depicts a similar experiment performed on the HCC1187 triple negative breast cancer (TNBC) xenograft model. […] Cells were then stained for CC3 expression (shown in red) as a marker of apoptosis.
FIGS. 20A-20D depicts the HCC1187 triple negative breast cancer (TNBC) xenograft model. Briefly, cells were treated with vehicle, voruciclib alone, ixazomib alone, or voruciclib and ixazomib in combination. Cells were then stained for CC3 expression (shown in red) as a marker of apoptosis.

[7] = target: ICK (Homo sapiens, UniProt Q9UPZ9); test: Kinase inhibition profile; assay type: biochemical
ICK, sequence (Q9UPZ9 whole entry): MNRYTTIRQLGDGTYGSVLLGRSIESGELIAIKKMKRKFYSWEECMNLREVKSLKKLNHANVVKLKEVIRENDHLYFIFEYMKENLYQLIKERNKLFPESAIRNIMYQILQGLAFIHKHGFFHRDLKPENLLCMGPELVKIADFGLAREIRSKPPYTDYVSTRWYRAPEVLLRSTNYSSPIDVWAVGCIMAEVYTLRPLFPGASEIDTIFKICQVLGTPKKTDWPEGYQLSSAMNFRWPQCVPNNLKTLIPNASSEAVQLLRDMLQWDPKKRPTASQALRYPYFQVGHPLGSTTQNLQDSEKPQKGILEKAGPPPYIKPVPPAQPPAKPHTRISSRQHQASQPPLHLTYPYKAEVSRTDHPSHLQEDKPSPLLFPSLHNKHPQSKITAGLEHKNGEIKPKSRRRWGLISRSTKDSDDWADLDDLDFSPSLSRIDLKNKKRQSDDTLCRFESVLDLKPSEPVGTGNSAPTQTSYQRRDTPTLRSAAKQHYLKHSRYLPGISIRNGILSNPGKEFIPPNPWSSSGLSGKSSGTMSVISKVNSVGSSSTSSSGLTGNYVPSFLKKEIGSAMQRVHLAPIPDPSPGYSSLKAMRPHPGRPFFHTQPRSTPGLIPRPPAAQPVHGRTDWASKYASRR

[8] = system: NU-DHL-1 diffuse large B-cell lymphoma (DLBCL) cells; test: CIVO microinjection, staining for MCL-1 and cleaved caspase-3; assay type: in vivo, mice
Procedure: Mice were enrolled into CIVO drug studies when the tumor volume reached approximately 1000 mm^3. […] A fluorescent tracking marker (FTM) was added to each drug reservoir in vehicle for delivery along with each drug or drug combination. […] Total amounts of agents injected are tabulated below in Table 4.
The cells were stained for cleaved caspase-3 (CC3) (shown in red) as a marker of apoptosis.

[9] = target: CDK9 (Homo sapiens, UniProt P50750); test: Kinase inhibition profiling (filter binding assay with γ-33P-ATP)
CDK9, sequence (P50750 whole entry): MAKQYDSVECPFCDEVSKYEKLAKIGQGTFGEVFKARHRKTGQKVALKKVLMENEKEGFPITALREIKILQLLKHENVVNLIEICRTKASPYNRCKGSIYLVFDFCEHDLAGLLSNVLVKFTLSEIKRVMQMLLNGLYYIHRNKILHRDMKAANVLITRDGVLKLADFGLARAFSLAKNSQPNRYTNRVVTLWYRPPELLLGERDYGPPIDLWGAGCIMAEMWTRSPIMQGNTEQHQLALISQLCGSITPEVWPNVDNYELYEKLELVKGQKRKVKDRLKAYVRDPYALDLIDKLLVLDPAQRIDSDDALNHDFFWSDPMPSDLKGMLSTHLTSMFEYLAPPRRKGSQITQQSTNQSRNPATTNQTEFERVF
CDK9, sequence (O60563 whole entry partner): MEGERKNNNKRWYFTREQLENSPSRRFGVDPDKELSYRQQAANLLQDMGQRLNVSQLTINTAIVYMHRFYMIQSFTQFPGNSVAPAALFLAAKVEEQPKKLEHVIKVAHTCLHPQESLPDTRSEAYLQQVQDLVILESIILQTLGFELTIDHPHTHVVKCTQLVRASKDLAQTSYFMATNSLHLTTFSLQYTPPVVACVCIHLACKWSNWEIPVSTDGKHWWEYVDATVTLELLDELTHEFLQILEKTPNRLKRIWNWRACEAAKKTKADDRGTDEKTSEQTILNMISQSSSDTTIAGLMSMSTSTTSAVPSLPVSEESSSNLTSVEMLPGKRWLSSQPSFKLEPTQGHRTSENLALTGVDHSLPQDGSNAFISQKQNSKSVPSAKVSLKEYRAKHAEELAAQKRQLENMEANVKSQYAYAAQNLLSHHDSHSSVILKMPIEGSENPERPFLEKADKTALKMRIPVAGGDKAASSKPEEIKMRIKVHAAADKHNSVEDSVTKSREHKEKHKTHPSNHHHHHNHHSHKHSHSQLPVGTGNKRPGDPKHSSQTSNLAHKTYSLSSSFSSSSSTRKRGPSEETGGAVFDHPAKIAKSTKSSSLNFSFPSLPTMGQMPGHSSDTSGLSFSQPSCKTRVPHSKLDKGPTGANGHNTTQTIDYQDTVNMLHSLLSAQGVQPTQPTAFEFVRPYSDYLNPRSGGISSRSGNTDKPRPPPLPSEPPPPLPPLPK
Procedure: The testing facility was Reaction Biology Corp. Kinase activity was measured using a filter binding assay with radioactive γ-33P-ATP as phosphate donor. The ATP concentration was near the Km for respective kinase. For each kinase, an IC50 value were calculated from a 10-point concentration curve of the test article and converted to Ki values.

[10] = target: MAK (Homo sapiens, UniProt P20794); test: Kinase inhibition profile
MAK, sequence (P20794 whole entry): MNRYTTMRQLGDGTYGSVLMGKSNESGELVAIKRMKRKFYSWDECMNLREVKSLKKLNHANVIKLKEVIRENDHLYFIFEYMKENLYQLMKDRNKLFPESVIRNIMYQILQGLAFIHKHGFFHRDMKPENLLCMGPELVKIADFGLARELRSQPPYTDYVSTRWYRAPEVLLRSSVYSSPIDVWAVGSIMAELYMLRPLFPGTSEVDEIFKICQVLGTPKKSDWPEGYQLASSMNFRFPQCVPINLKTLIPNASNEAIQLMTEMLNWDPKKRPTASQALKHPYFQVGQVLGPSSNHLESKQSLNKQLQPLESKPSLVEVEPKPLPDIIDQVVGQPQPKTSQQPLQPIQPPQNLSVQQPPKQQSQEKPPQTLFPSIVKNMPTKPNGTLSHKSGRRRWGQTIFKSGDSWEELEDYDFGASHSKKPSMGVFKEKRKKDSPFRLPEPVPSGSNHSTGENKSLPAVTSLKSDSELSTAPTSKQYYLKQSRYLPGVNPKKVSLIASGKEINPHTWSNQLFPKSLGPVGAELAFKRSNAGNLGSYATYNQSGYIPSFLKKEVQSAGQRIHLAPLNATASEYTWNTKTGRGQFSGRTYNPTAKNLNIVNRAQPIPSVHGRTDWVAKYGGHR

[11] = voruciclib 1.5 and 5.0 micromolar, 2, 6, or 24 h
[12] = voruciclib 1.5 micromolar, venetoclax 100 nM, 24 h

Structure (SMILES): CN1CC[C@@H](c2c(O)cc(O)c3c(=O)cc(-c4ccc(C(F)(F)F)cc4Cl)oc23)[C@@H]1CO (relative stereo) [voruciclib, (+)-trans-2-(2-Chloro-4-trifluoromethylphenyl)-5,7-dihydroxy-8-(2-hydroxymethyl-1-methylpyrrolidin-3-yl)-chromen-4-one]
- CC3 expression [1]: slight effect
- MCL-1 [2, 11]: suppresses
- apoptosis (cleaved PARP) [2, 11]: induces apoptosis
- MCL-1 [2, 12]: dampens
- apoptosis (PARP) [2, 12]: neither agent alone induces apoptosis
- MCL-1 [3, 11]: suppresses
- apoptosis (cleaved PARP) [3, 11]: induces apoptosis
- MCL-1 [3, 12]: dampens
- apoptosis (PARP) [3, 12]: neither agent alone induces apoptosis
- MCL-1 [4, 11]: suppresses
- apoptosis (cleaved PARP) [4, 11]: induces apoptosis
- MCL-1 [4, 12]: dampens
- apoptosis (PARP) [4, 12]: neither agent alone induces apoptosis
- normalized tumor volume ([5]; Voruciclib 200 mpk, Venetoclax 25 mpk, oral gavage 6 days of the week): increase in tumor volume
- p53 ([5]; Western blot of tumors, Day 26, 4 hours post treatment): restores
- CC3 expression [6]: little to no increase
- inhibition of ICK [7]: does not show potent inhibition
- expression of CC3 (cleaved caspase-3) ([8]; marker of apoptosis): slight increased; also recorded: slight effect
- expression of MCL-1 ([8]; staining, versus vehicle): decreased
- inhibition of CDK9 [9]: strongest inhibition
- inhibition of MAK [10]: does not show potent inhibition
